Series [1] relates to Escherichia coli 6418. The experiment in a line: Microbial colonization of hydrogel coated latex foley catheter surface, plate counting. Format: cell-based. The settings on record: 0.2 mM gallium nitrate, 48 hours, compared to positive control with no gallium, FIG. 3. As to the method: After 48 hours, catheter pieces were removed, microorganisms were recovered from the catheter surface and enumerated by plate counting methods.

Series [2] concerns Escherichia coli 6418. The experiment in a line: Biofilm formation on catheter after two hours pre-attachment of bacteria, plate counting. The settings on record: 0.2 mM gallium nitrate, 48 hours, compared to positive control with no gallium, FIG. 4. Format: cell-based.
For series [3] the following is noted: on exposure of the coating to body fluid, based on relative solubilities in water. The text has this: The differences in the solubility of the different salts in the composition will result in different and prolonged rates of release of the oligodynamic gallium in the coating composition when a device coated with the composition is exposed to body fluid. The amount of water in the final coating solution is about 30% of the total solvent weight.

Here are results for 3 molecules from patent US20100074932A1, “ANTIMICROBIAL COMPOSITIONS CONTAINING GALLIUM” (priority 2006, published 2010).

As to `O=[N+]([O-])[O-].O=[N+]([O-])[O-].O=[N+]([O-])[O-].[Ga+3]` [gallium nitrate], the “microbial colonization of the catheter surface” value in series [1] is “reduced microbial colonization”. The biofilm formation entry in series [2] is recorded as “reduced biofilm formation”. Consider `CC(=O)[O-].CC(=O)[O-].CC(=O)[O-].[Ga+3]` [gallium acetate], for which the “order of release from the coating composition” value in series [3] is “Then”. On the same count and under the same terms, with `[I][Ga]([I])[I]` [gallium iodide] the entry was “lastly”.
